The series is described as follows: Solubility of alkylphenol in water at digestion conditions. The class given is physicochemical. Particulars: 240 C, 15 bar N2, 30 g xylenol + 30 g deionized water, phases separated hot, consecutive samples via bottom dip tube. The source says:
Stirring was stopped, and phases were allowed to separate while hot, before sampling of all reactor contents via consecutive withdrawal of samples via a bottom dip tube.

The source of these data is patent publication US20160184795A1, “METHODS AND SYSTEMS FOR […]” (SHELL OIL COMPANY, priority 2014, published 2016).

Structures are written as SMILES. “And” between values parts separate entries of the source, which are not always exact repeats. Identical values can stand only once.

Turning to `Cc1cccc(C)c1O` [xylenol, 2,6-dimethylphenol], the “weight fraction of xylenol in water, individual samples withdrawn” value was 18.6 weight percent and 26 weight percent and 32 weight percent.
